# According to article PMC7822874, “Chemoprotective antimalarials identified through quantitative high-throughput screening of Plasmodium blood and liver stage parasites” (Scientific Reports, 2021):
# Like-named read-outs stand apart in the source and are kept apart here.
# What was measured:
# in vitro = details: human
# [1] = test system: Plasmodium falciparum Dd2 asexual blood stage parasites; assay: microbe, parasite or virus in culture; design: species or system Plasmodium falciparum Dd2 in human erythrocytes; single determination (one 11-point concentration-response curve); details: Plasmodium falciparum, DD2, Erythrocyte, 72 h; read-out: AC50
# [2] = test system: P. berghei-ANKA-GFP-LucCON liver stage parasites in HepG2-A16-CD81EGFP cells; assay: P. berghei liver stage Pb-Luc assay, Method 1 (UCSD, 1536-well); format: cell-based, Plasmodium berghei; details: Plasmodium berghei, 48 h, average of 2 wells, 1536-well plate; for activity at 1 µM: nominal 1 uM (10 mM stock), […] for 15 mM, 1.2 uM for 12 mM, 2 uM for 20 mM stock; for activity at 3 µM: nominal 3 uM (10 mM stock), 4.5 uM for 15 mM, 3.6 uM for 12 mM, 6 uM for 20 mM stock; for all read-outs here: reference of the scale not given here
# [3] = nominal 1 uM (10 mM stock), […] for 15 mM, 1.2 uM for 12 mM, 2 uM for 20 mM stock, average of 2 wells, repeat 2
# [4] = nominal 3 uM (10 mM stock), 4.5 uM for 15 mM, 3.6 uM for 12 mM, 6 uM for 20 mM stock, average of 2 wells, repeat 2
# [5] = HepG2-A16-CD81EGFP cells, uninfected
# [6] = repeat 1, read-out: Pb-Luc signal, 1 uM, repeat 1
# [7] = repeat 2, read-out: Pb-Luc signal, 1 uM, repeat 2
# [8] = repeat 3, read-out: Pb-Luc signal, 1 uM, repeat 3
# [9] = repeat 1, read-out: Pb-Luc signal, 3 uM, repeat 1
# [10] = repeat 2, read-out: Pb-Luc signal, 3 uM, repeat 2
# [11] = repeat 3, read-out: Pb-Luc signal, 3 uM, repeat 3
SMILES,"HepG2 viability signal, 1 uM, repeat 2 (HepG2-A16-CD81EGFP cells; [3]) [%]","HepG2 viability signal, 3 uM, repeat 2 (HepG2-A16-CD81EGFP cells; [4]) [%]","viability at 48 h, 1 µM (in vitro; [5]) [%]","viability at 48 h, 3 µM (in vitro; [5]) [%]",AC50 [1] [nM],"activity at 1 µM [2, 6] [%]","activity at 1 µM [2, 7] [%]","activity at 1 µM [2, 8] [%]","activity at 3 µM [2, 9] [%]","activity at 3 µM [2, 10] [%]","activity at 3 µM [2, 11] [%]","HepG2 viability signal, 1 uM, repeat 2 (HepG2-A16-CD81EGFP cells; human, 48 h, 1 µM) [%]","HepG2 viability signal, 3 uM, repeat 2 (HepG2-A16-CD81EGFP cells; human, 48 h, 3 µM) [%]","viability at 48 h, 1 µM (in vitro) [%]","viability at 48 h, 3 µM (in vitro) [%]"
CCN1CCN(C(=O)c2ccc3c(c2)N(Cc2ccccc2F)C(=O)c2ccccc2[S+]3[O-])CC1 (centres unmarked) [NCGC00109528-01],95.20,97.54,101,98.8,841,102,105,110,94.3,116,97.6,,,,
CCC(CC)c1cc([C@H]2CN3CC[C@H]2C[C@@H]3CN[S+](=O)([O-])c2ccccc2C#N)nc(-c2ccncc2)n1 [NCGC00421343-01],,,,,1500,72,78.5,103,49,52,66.9,105.19,104.55,110,110
CCOc1ccccc1CN1CCCN(Cc2ccncc2)C(c2ccccc2)CC(=O)NCC1 (centres unmarked) [NCGC00467181-01],96.74,96.24,101,96.8,6680,105,89.1,111,102,80.2,86.4,,,,
Fc1ccc(N2CCCN(C[C@H]3[C@@H]4CNC[C@@H]43)CC2)cc1 [NCGC00435915-01],103.90,120.28,102,124,8410,97.7,120,120,53.5,38.2,21.5,,,,
CC(C)C(=O)N1Cc2ccccc2CC2(CCCN(CC3CCCCC3)C2)C1 (centres unmarked) [NCGC00377456-01],102.51,104.36,100,105,53.1,94.7,96.1,116,81.5,98,85.1,,,,
COc1cccc([C@@H]2CCN(Cc3[nH]c4ccccc4c3C)C[C@H]2O)c1 [NCGC00443267-01],,,,,1500,83.1,92.1,74.1,85.2,118,62.2,93.46,93.99,91.9,96.2
Cn1nnnc1SCCCNCc1cccc(OCc2ccccc2)c1 [NCGC00117957-01],101.95,103.35,97.9,101,9440,78.6,108,127,58.9,94,87.5,,,,
CC1CCCN(Cc2c(O)ccc3c(=O)c(-c4ccccc4Cl)c(C(F)(F)F)oc23)C1 (centres unmarked) [NCGC00100585-01],105.16,104.39,108,112,841,99.2,115,106,62.6,101,122,,,,
O=C(Nc1ccc2c(N3CCOCC3)ncnc2c1)c1ccc(Br)o1 [NCGC00425547-01],103.01,102.12,110,106,2660,126,99.1,129,123,89.4,131,,,,
COc1ccc2[nH]c(C[C@@H]3C[C@@H](C(C)C)[C@H](CNCc4ccccc4OC)C=C3C)nc2c1 [NCGC00392082-01],98.07,97.57,99,97.1,9440,67,80.5,77.5,48.5,52,40.1,,,,
CCN1CCN(C(=O)c2ccc3c(c2)N(Cc2ccc(Cl)cc2)C(=O)c2ccccc2[S+]3[O-])CC1 (centres unmarked) [NCGC00109464-01],105.55,102.35,110,108,668,104,92.1,102,83.2,80.5,103,,,,
COc1cccc(C2C(C(=O)Nc3ccc(C)cc3C)=C(C)Nc3c(C(=O)Nc4ccccc4)cnn32)c1 (centres unmarked) [NCGC00126286-01],98.62,98.36,94.8,99.4,2110,97.2,125,153,94.7,93.4,100,,,,
CCOC(=O)c1ccc(NC2=CC(c3ccc(O)c(OCC)c3)N(c3ccc(C(=O)OCC)cc3)C2=O)cc1 (centres unmarked) [NCGC00102600-01],100.94,102.23,98.6,101,3350,107,140,101,117,126,113,,,,
CCN(Cc1ccccc1)C(=O)CCC[C@@H]1[C@H]2CCCN3CCC[C@@H](CN1C(=O)c1ccccc1)[C@@H]23 [NCGC00429496-01],99.16,100.31,93.4,93.8,13300,107,115,85.5,89.3,121,99.6,,,,
CCc1ccc(Oc2c(C(F)(F)F)oc3c(CN4CCN(CC)CC4)c(O)ccc3c2=O)cc1 [NCGC00101506-01],92.46,94.20,92.4,95.7,376,82.1,87.1,67,64.2,90,40.1,,,,
CCN1CCN(Cc2c(O)ccc3c(=O)c(Oc4ccccc4Cl)c(C(F)(F)F)oc23)CC1 [NCGC00101484-01],99.03,97.39,99.8,94.1,596,88.6,66,90.1,93.5,101,77.7,,,,
COc1ccc(-c2noc(-c3cccn3CC(=O)Nc3ccccc3F)n2)cc1F [NCGC00445496-01],,99.66,98.5,101,4220,109,140,144,172,189,163,,,,
CN1CCN(C(=O)c2ccc3c(c2)N(Cc2ccc(C(F)(F)F)cc2)C(=O)c2ccccc2S3)CC1 [NCGC00108242-01],102.88,103.88,99.8,101,531,104,123,103,91,99.2,92.4,,,,
